Data as given in PubChem BioAssay AID588659 (The Scripps Research Institute Molecular Screening Center, 2011).
Calls of active or inactive are those of the source.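 How the source made its calls: active means change in p38 protein level versus solvent-only treated cells of at least 30%, down or up; inactive means change under 30% either way.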

What was measured:
[1] = target: Mitogen-activated protein kinase 14 (Homo sapiens) (UniProt Q16539); assay: total p38 protein level change, either direction, late-stage follow-up, counter-screen for KLF5 inhibitor project, HT29 cells, chemiluminescent western blot, powder samples (AID 588659); conditions: HT29 cells, p38 western blot, 24 h; at 10 µM; stronger effect = higher value
Mitogen-activated protein kinase 14 (Homo sapiens), sequence (Q16539 whole entry, looked up): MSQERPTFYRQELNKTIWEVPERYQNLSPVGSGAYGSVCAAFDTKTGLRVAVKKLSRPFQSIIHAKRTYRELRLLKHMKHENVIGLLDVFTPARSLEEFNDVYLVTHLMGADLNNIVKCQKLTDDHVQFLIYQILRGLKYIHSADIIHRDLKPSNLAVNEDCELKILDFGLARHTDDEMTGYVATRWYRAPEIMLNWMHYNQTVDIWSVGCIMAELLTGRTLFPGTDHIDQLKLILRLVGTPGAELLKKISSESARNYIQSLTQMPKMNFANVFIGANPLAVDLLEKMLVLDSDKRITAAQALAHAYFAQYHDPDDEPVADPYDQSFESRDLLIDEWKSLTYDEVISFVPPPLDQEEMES

[2] = system: HT29 cells, p38 western blot, 24 h; assay: as above; conditions: measured here: p38 band fold change vs DMSO; at 10 µM

Compound | inhibition [1] | fold change [2]
CN(C(=O)CNC(=O)/C=C/c1cccc(Cl)c1)C1CCS(=O)(=O)CC1 | 10.2% (inactive) | –
CN(C(=O)COC(=O)/C=C/c1cccc([N+](=O)[O-])c1)C1CCS(=O)(=O)C1 (centres undefined) | 14.3% (inactive) | –
CN(C(=O)CNC(=O)/C=C/c1cccc(Cl)c1)C1CCS(=O)(=O)C1 (centres undefined) | -2.37% (inactive) | 1.02
